In patent US20200009137A1, “TOPICAL FORMULATIONS AND USES THEREOF” (SUN PHARMA GLOBAL FZE, priority 2015, published 2020):

Key:
[1] = 1H NMR qualitative studies for free drug; format: physicochemical; settings: D2O; drug peaks evident in CDCl3
Protocol: To determine the absence of free drug in the outer aqueous environment, qualitative studies were conducted. Qualitative proton nuclear magnetic resonance (NMR) studies were conducted with Varian 400 MHz NMR. Deuterated chloroform and water as solvent systems were used to resuspend the formulation and NMR studies were performed.

[2] = Ocular tissue distribution of RX-10045 / RX-10008 (LC-MS/MS); format: in vivo, rabbit; settings: topical ocular RX-10045 formulations 4×/day for 5 days, rabbits
Protocol: A study was conducted in rabbits to test the tolerance and ocular tissue distribution of two nanomicellar formulations of compound 1001 (RX10045) against matching placebos (Table 7a and 7b) and balanced saline solution (BSS). Healthy New Zealand female white rabbits (2-3 kg) were used for this study. One drop (approximately 35 μL) of study drug was applied o.d. 4×/day at two hour intervals for 5 days. One drop of BSS was applied to the contralateral eye.
Selected ocular fluids/tissues (aqueous humor, vitreous humor, conjunctiva, cornea, iris-ciliary body, lens, retina/choroid, and sclera) collected from two rabbits each in the RX-10045 (0.15% in HCO-60, 0.1% in HCO-40) treatment groups, and from one rabbit in each of the matching placebo groups, were assayed for compound 1001 and another resolvin by liquid chromatography-tandem mass spectrometry (LC-MS/MS). Warfarin-d5 and 5-HDA were used as internal standards for the analysis of RX-10045 and its active metabolite, RX-10008, respectively, in aqueous humor and vitreous humor. For the other ocular tissues (solid tissues), warfarin-d5 and phenyl acetic acid-d5 (PAA-d5) were used as the internal standards for compound 1001 and RX-10008, respectively. The analytical range for the solid tissues were 0.125-100 ng. The results of the solid tissue analyses were converted to ng/g by correcting for the amount of tissue analyzed.

C#CC[C@@H](O)/C=C/C=C/C#C[C@@H](O)CCCC(=O)OC(C)C [compound 1001]
Free drug when MNF is resuspended in aqueous solution (qualitative proton NMR) [1]: not freely available
Compound 1001 in the majority of ocular tissues [2]: either not detected or was below the quantitation limit of the assay
